Assay results published in ChEMBL document CHEMBL1137872, “Potent and selective P2-P3 ketoamide inhibitors of cathepsin K with good pharmacokinetic properties via favorable P1', P1, and/or P3 substitutions” (Bioorg Med Chem Lett, 2004).
≈ marks a conversion by molar mass, not a printed value.

Assays:
Cathepsin K = target: T1, Cathepsin K (Homo sapiens, UniProt P43235); assay: Inhibition of 10 uM Cbz-Phe-Arg-AMC binding to human cathepsin K in fluorescence assay
T1 sequence (P43235 whole entry): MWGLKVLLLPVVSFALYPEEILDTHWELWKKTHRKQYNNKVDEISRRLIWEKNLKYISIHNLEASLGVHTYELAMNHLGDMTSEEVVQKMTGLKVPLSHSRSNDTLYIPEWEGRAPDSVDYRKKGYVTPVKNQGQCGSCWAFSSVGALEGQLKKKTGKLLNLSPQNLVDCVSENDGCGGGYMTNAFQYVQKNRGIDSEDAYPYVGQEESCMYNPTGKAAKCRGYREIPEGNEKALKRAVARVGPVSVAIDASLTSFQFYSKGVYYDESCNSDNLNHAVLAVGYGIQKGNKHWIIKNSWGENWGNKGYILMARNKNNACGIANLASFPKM

[1] = Apparent permeability coefficient for apical to basolateral flux was determined by Madin-Darby canine kidney cell monolayer transport assay; type: ADME, cell-based, Canis lupus familiaris; conditions: dog, MDCK
[2] = target: T2, Cathepsin (L and K) (Homo sapiens) (UniProt P43235+P07711); assay: (§1) Relative binding to human cathepsins L and K; type: protein assay
T2 sequence (P07711 whole entry, looked up, one chain of several): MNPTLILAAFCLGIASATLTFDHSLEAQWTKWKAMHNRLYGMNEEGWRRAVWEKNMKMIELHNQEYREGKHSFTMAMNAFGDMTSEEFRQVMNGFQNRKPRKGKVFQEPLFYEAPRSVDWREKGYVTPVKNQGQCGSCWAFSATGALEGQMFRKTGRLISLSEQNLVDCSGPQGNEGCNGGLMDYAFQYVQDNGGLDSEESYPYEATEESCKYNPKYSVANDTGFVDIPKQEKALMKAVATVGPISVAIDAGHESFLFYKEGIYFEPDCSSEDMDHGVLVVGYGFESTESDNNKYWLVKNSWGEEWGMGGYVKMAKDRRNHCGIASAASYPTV

Procathepsin L = Procathepsin L (Homo sapiens, UniProt P07711); assay: Inhibition of 5 uM Cbz-Phe-Arg-AMC human cathepsin L in fluorescence assay
Chain of Procathepsin L (P07711 whole entry): as the sequence (P07711 whole entry, looked up, one chain of several) above

Cathepsin B = Cathepsin B (Homo sapiens, UniProt P07858); assay: Inhibition of 10 uM Cbz-Phe-Arg-AMC binding to human cathepsin B in fluorescence assay
[3] = Equilibrium solubility in fasted state-simulated intestinal fluid was determined […]; type: ADME, Rattus norvegicus; conditions: read-out: FS-SIF
[4] = Oral bioavailability in rat; type: ADME, organism-based; conditions: in vivo
[5] = target: Cathepsin (S and K) (Homo sapiens) (UniProt P25774+P43235); assay: Relative binding to human cathepsins S and K; type: protein assay
[6] = Total clearance in rats; type: ADME, organism-based; conditions: rat, in vivo
[7] = target: T3, Pro-cathepsin H (Homo sapiens) (UniProt P09668); assay: Relative binding to human cathepsins H and K
T3 sequence (whole entry): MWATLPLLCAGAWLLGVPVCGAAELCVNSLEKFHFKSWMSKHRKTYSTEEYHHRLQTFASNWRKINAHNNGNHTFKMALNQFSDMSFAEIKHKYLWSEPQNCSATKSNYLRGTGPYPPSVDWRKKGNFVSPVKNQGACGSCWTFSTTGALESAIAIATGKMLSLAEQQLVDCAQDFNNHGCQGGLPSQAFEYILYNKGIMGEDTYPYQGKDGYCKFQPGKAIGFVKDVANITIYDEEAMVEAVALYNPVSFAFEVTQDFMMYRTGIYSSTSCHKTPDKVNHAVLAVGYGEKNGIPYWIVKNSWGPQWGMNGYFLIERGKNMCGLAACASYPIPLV

Pro-cathepsin H = target: T4, Pro-cathepsin H (Homo sapiens, UniProt P09668); assay: Inhibition of 50 uM L-Arg-beta-naphthalamide binding to human cathepsin H in fluorescence assay
T4 sequence (P09668 whole entry): T3 sequence (whole entry)

Cathepsin S = Cathepsin S (Homo sapiens, UniProt P25774); assay: Inhibition of 10 uM Cbz-Val-Val-Arg-AMC binding to human cathepsin S in fluorescence assay
Chain of Cathepsin S (P25774 whole entry): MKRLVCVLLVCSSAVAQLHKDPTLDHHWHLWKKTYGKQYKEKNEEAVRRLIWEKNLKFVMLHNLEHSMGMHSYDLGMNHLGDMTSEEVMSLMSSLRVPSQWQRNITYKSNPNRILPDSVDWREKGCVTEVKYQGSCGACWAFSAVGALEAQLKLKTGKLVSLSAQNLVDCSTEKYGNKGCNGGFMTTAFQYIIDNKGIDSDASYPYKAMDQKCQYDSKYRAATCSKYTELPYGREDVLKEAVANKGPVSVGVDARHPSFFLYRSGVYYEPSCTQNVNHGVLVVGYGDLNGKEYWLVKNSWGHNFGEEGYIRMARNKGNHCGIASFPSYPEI

[8] = target: T2, Cathepsin (L and K) (Homo sapiens); assay: as §1; type: protein assay; remark: listed apart in the source
[9] = Terminal half-life was determined in rats upon intravenous administration as a solution in 30% hydroxypropyl-beta-cyclodextrin, pH = 5.1; type: ADME, organism-based; conditions: rat, in vivo
[10] = target: Cathepsin (H and K) (Homo sapiens) (UniProt P09668+P43235); assay: Relative binding affinity for human cathepsins H and K; type: protein assay
[11] = Steady state volume of distribution in rats; type: ADME, organism-based; conditions: rat, in vivo; read-out: Vss
[12] = Terminal half-life was determined in rats upon intravenous administration as a solution in 40% hydroxypropyl-beta-cyclodextrin, pH = 5.1; type: ADME, organism-based; conditions: rat, in vivo
[13] = Terminal half-life was determined in rats upon intravenous administration as a solution in 30% hydroxypropyl-beta-cyclodextrin, pH = 3.5; type: ADME, organism-based; conditions: rat, in vivo

SMILES | IC50 (Cathepsin K) [nM] | Papp A→B [1] [×10⁻⁶ cm/s] | Ratio [2] | IC50 (Procathepsin L) [nM] | IC50 (Cathepsin B) [µM] | solubility thermodynamic [3] [µg/mL] | bioavailability [4] [%] | Ratio [5] | clearance [6] [mL/min/kg] | Ratio [7] | IC50 (Pro-cathepsin H) [µM] | IC50 (Cathepsin S) [nM] | Ratio [8] | half-life [9] [min] | Ratio [10] | Vd [11] [L/kg] | half-life [12] [min] | half-life [13] [min]
CCCC[C@H](NC(=O)OC(C)(C)Cc1ccccc1)C(=O)C(=O)N[C@H](C)c1ccccc1 | 630 |  |  |  |  |  |  |  |  |  |  |  |  |  |  |  |  | 
CCCC[C@H](NC(=O)OCC1(Cc2ccc(F)cc2)CCC1)C(=O)C(=O)Nc1ccn[nH]1 | 0.83 | 15 | > 600 | 330 | > 0.5 | 150 (≈ 337 µM) | 31 | 6.3 | 45 | > 600 | > 0.5 | 5.2 | 390 | 120 |  |  |  | 
CCCC[C@H](NC(=O)OC(CC)(CC)Cc1ccccc1)C(=O)C(=O)N[C@H](C)c1ccccc1 | 150 |  |  |  |  |  |  |  |  |  |  |  |  |  |  |  |  | 
CCCC[C@H](NC(=O)OC1(Cc2ccccc2)CCCCC1)C(=O)C(=O)N[C@H](C)c1ccccc1 | 210 |  |  |  |  |  |  |  |  |  |  |  |  |  |  |  |  | 
CCCC[C@H](NC(=O)OCC1(CCCc2ccccc2)CCC1)C(=O)C(=O)N[C@H](C)c1ccccc1 | 17 |  | > 120 | 1300 | > 2 |  |  | 1 |  | > 120 | > 2 | 17 | 76 |  |  |  |  | 
CCCC[C@H](NC(=O)OCC1(CCc2ccccc2)CCC1)C(=O)C(=O)N[C@H](C)c1ccccc1 | 24 |  | 67 | 1600 | > 2 |  |  | 1.4 |  |  | > 2 | 34 |  |  | > 83 |  |  | 
CNC(=O)NCCCC[C@H](NC(=O)OCC1(Cc2c(F)cccc2F)CCC1)C(=O)C(=O)N[C@H](C)c1ccccc1 | 24 | 14 |  |  |  | 20 (≈ 34.9 µM) | 15 |  | 33 |  |  |  |  | 94 |  | 1.6 |  | 
CCCC[C@H](NC(=O)OC1(Cc2ccccc2)CCC1)C(=O)C(=O)N[C@H](C)c1ccccc1 | 710 |  |  |  |  |  |  |  |  |  |  |  |  |  |  |  |  | 
C[C@@H](NC(=O)C(=O)[C@H](CCCCNC(=O)N1CCOCC1)NC(=O)OCC1(Cc2ccncc2)CCC1)c1ccccc1 | 7.6 | 1.4 |  |  |  | 300 (≈ 505 µM) | 8.1 |  | 27 |  |  |  |  |  |  | 0.66 | 74 | 
CCCC[C@H](NC(=O)OC1(Cc2ccccc2)CCCC1)C(=O)C(=O)N[C@H](C)c1ccccc1 | 25 |  | 120 | 3000 | > 12 |  |  | 17 |  |  | > 12 | 430 |  |  | > 480 |  |  | 
CN(C)S(=O)(=O)NCCCC[C@H](NC(=O)OCC1(Cc2ccc(F)cc2)CCC1)C(=O)C(=O)NCc1cccnc1 | 40 | 6.9 | > 120 | > 5000 | > 5 | 30 (≈ 50.7 µM) | 18 | 3.2 | 9.6 | > 120 | > 5 | 130 | > 120 |  |  | 0.42 |  | 270
CCCC[C@H](NC(=O)OCC(C)(C)c1ccccc1)C(=O)C(=O)N[C@H](C)c1ccccc1 | 65 |  | 46 | 3000 | 5 |  |  | 4.2 |  |  | > 5 | 270 |  |  | > 77 |  |  | 
C[C@@H](NC(=O)C(=O)[C@H](CCCCNC(=O)N1CCOCC1)NC(=O)OCC1(Cc2ccc(F)cc2)CCC1)c1ccccc1 | 13 | 47 |  | 680 | > 5 | 90 (≈ 147 µM) | 38 | 2.1 | 43 |  | > 5 | 27 |  |  |  | 4.2 | 110 | 
CCCC[C@H](NC(=O)OCC(C)(C)Cc1ccccc1)C(=O)C(=O)N[C@H](C)c1ccccc1 | 13 |  | 92 | 1200 | > 5 |  |  | 1.5 |  | > 380 | > 5 | 20 |  |  | > 380 |  |  | 
CCCC[C@H](NC(=O)OCC1(Cc2ccccc2)CCCC1)C(=O)C(=O)N[C@H](C)c1ccccc1 | 26 |  | 85 | 2200 | > 5 |  |  | 0.4 |  | > 190 | > 5 | 11 |  |  | > 190 |  |  | 
CCCC[C@H](NC(=O)OCC1(Cc2ccccc2)CCC1)C(=O)C(=O)N[C@H](C)c1ccccc1 | 8.5 |  | 150 | 1300 | 3.6 |  |  | 2.4 |  | > 580 | > 5 | 20 |  |  | > 580 |  |  | 
